In US9340556B2, “Antibacterial compounds” (GLAXO GROUP LIMITED, priority 2011, dated 2016) one finds MIC data, which are given here for one molecule.

The assay can be described thus: Antimicrobial activity assay: whole-cell broth microdilution MIC (CLSI M7-A7). It is filed as cell-based. Particulars: for at least one strain of one organism listed, serial two-fold dilutions 0.064 to 64 μg/ml, in the presence of 20 uM human apo-Transferrin, tested in at least one exemplified salt or free base form, read-out: MIC (minimum inhibitory concentration). As to the method:
Antimicrobial Activity Assay
Whole-cell antimicrobial activity was determined by broth microdilution using the Clinical and Laboratory Standards Institute (CLSI) recommended procedure, Document M7-A7, “Methods for Dilution Susceptibility Tests for Bacteria that Grow Aerobically”. In some cases, broth microdilution MICs were determined using IsoSensitest broth (Oxoid) in place of CLSI recommended cation adjusted Mueller-Hinton broth. The compounds were tested in serial two-fold dilutions ranging from 0.064 to 64 μg/ml in the presence of 20 uM human apo-Transferrin (Sigma T-1147).
Compounds were evaluated against Gram-negative organisms selected from Escherichia coli, Pseudomonas aeruginosa, Proteus mirabilis, Enterobacter cloacae, Enterobacter aerogenes, Klebsiella pneumoniae, Stenotrophomonas maltophilia, Acinetobacter baumanii, Serratia marascens, Citrobacter freundii, and Klebsiella oxytoca.
The minimum inhibitory concentration (MIC) was determined as the lowest concentration of compound that inhibited visible growth. A mirror reader was used to assist in determining the MIC endpoint.
Each of the listed Examples 1 to 56 and 59 to 61 identified in the present application, were tested in at least one exemplified salt or free base form.
On the technique in general: In broth dilution the organism is exposed to a series of concentrations in liquid medium.

Counter-ions that a name gives are not always drawn. Some results are limits rather than exact numbers.

Turning to `Cn1cc(O)c(=O)c2cc(C[N+]3(CC4=C(C(=O)[O-])N5C(=O)[C@@H](NC(=O)/C(=N\O[C@@H](CC(=O)O)C(=O)O)c6csc(N)n6)[C@H]5SC4)CCCC3)ccc21` [Example 5, (6R,7R)-7-((Z)-2-(2-aminothiazol-4-yl)-2-(((S)-1,2-dicarboxyethoxy)imino)acetamido)-3-((1-((3-hydroxy-1-methyl-4-oxo-1,4-dihydroquinolin-6-yl)methyl)pyrrolidin-1-ium-1-yl)methyl)-8-oxo-5-thia-1-azabicyclo[4.2.0]oct-2-ene-2-carboxylate, 3 Sodium salt], the MIC was not above 8 µg/mL.
